According to patent US8933103B2, “Pyridone derivatives” (Daiichi Sankyo Company, Limited, priority 2012, dated 2015):

Experiments:
[1] = biological target: T1, phosphorylated Axl (pAxl Y702) in NCI-H1299 cells (Homo sapiens, UniProt P30530); experiment: Intracellular Axl Phosphorylation Inhibitory Activity (pAxl, NCI-H1299 cells); type: cell-based; conditions: 1 h compound incubation, GAS6 stimulation 10 minutes, pAxl (Y702) level
T1 construct: endogenous in cells; host or cells: NCI-H1299
T1 sequence (P30530 26-894): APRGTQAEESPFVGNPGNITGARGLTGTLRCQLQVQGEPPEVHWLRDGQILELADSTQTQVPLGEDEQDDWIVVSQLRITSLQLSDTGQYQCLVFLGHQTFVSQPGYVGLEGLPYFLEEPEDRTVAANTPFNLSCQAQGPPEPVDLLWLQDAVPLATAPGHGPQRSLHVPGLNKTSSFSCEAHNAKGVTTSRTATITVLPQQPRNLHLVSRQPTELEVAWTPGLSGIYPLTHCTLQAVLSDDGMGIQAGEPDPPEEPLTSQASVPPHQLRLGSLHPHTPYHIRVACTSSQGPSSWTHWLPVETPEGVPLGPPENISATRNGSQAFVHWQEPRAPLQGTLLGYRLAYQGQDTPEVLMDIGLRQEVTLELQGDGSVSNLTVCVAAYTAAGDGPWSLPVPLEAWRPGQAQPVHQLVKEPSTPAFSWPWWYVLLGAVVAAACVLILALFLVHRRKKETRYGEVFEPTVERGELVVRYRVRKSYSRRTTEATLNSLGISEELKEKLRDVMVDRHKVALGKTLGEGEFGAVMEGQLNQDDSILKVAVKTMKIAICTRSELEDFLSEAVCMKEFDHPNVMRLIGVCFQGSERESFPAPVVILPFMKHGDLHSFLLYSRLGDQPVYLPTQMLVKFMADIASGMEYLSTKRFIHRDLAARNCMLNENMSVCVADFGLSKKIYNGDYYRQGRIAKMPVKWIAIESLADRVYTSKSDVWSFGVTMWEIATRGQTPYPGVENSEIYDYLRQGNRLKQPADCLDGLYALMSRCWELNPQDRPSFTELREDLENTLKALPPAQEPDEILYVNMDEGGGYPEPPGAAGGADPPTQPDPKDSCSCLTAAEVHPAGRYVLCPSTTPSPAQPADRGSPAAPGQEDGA
Experimental: A phosphorylated Axl (hereinafter pAxl) inhibitory test was performed using the human non-small-cell lung cancer-derived cell strain NCI-H1299.
On the following day, the medium was removed, 100 μl of fresh medium were added, and the cells were cultured at 37° C. in the presence of 5% CO2 for one day.
The test compound was dissolved in DMSO and diluted with medium to prepare a sample solution (DMSO concentration: 2%). Twenty-five microliters of medium or sample-added medium was added to each well (DMSO concentration: 0.4%), and the plate was incubated at 37° C. in the presence of 5% CO2 for one hour.
After stirring, the plate was incubated at 37° C. in the presence of 5% CO2 for 10 minutes.
The supernatant was discarded, and 0.1 ml of a 37% formalin solution diluted to 4% with phosphate buffer (PBS) (hereinafter “4% formalin solution”) was added to each well. The plate was allowed to stand at room temperature for 10 minutes.
Next, the 4% formalin solution was discarded, and 0.2 ml of a solution of Triton X-100 diluted to 0.1% with PBS (hereinafter “wash buffer”) was added. The wash buffer was discarded using a decanter, and excess moisture in the plate was removed on a paper towel.
Subsequently, […] NaN3 and H2O2 were added to the wash buffer at 0.1% (hereinafter “quenching buffer”), and 0.1 ml of the quenching buffer was added to each well. The plate was allowed to stand at room temperature for 15 minutes.
The quenching buffer was discarded, and 0.2 ml of wash buffer was added. The wash buffer was discarded using a decanter, and excess moisture in the plate was removed on a paper towel.
Skim milk (Nacalai Tesque) was added to the wash buffer at a final concentration of 5% (hereinafter “blocking buffer”), and 0.25 ml of the blocking buffer was added to each well. The plate was allowed to stand at room temperature for one hour.
After light stirring, the plate was incubated for 20 minutes. Luminescence was then measured by ARVO sx (PerkinElmer), and the pAxl (Y702) level was measured.
pAxl Inhibitory activity was determined by the following formula. Inhibition %=100−(A−B)×100/(T−B)
A: Measurement of the test compound
T: Luminescence value of the reaction solution with a compound not added

[2] = biological target: T2, AXL (fusion protein of amino acids 464-885 of the intracellular domain of human AXL with glutathione transferase) (Homo sapiens, UniProt P30530); experiment: Cell-Free Axl Kinase Inhibitory Activity
T2 sequence (P30530 464-885 isoform P30530-2): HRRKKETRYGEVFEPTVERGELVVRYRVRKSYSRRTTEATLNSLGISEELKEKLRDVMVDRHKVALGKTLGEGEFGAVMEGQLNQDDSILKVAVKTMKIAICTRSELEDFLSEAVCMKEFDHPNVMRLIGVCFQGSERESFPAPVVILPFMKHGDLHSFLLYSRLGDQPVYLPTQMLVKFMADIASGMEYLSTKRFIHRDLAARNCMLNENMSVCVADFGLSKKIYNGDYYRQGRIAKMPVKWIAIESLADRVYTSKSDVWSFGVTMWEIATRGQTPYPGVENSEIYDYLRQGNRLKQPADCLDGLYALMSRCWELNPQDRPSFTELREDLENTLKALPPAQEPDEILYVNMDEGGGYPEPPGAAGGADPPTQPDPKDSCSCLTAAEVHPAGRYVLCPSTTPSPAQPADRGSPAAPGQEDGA
Experimental: Next, the test compound was diluted with DMSO, and 1 μl of this diluted solution was added to each well.
Five microliters of this solution were added to each well to initiate a kinase reaction. The plate was incubated at 28° C. for 1.5 hours, and 40 μl of a termination buffer (100 mM HEPES (pH 7.4), 0.015% Brij-35, 40 mM EDTA, 0.1% Coating Reagent 3) was added to each well to terminate the reaction.
The substrate peptide and the phosphorylated peptide in the reaction solution were separated and quantified by EZ Reader II (Caliper Life Sciences).
IC50 was determined from inhibition data for 12 test compound concentrations by nonlinear regression (four-parameter logistic regression) using the following formula.

Question: Which IC50 [1] does the source give for `CC(=O)N1C2C=C(c3cnc(N)c(-c4ccc(NC(=O)c5cn(CCF)cc(-c6ccc(F)cc6)c5=O)cc4)c3)CC1CC2` (stereo not drawn) [Example 81, N-{4-[5-(8-Acetyl-8-azabicyclo[3.2.1]oct-2-en-3-yl)-2-aminopyridin-3-yl]phenyl}-1-(2-fluoroethyl)-5-(4-fluorophenyl)-4-oxo-1,4-dihydropyridine-3-carboxamide] here?
Answer: 100 to 500 nM

Question: What about the IC50 [2] of the same compound?
Answer: 23 nM

Question: What does the source list for `COc1ccc(-c2cnc(N)c(-c3ccc(NC(=O)c4cn(CC(F)(F)F)cc(-c5ccc(F)cc5)c4=O)cc3)c2)cc1` [Example 32, N-{4-[2-Amino-5-(4-methoxyphenyl)pyridin-3-yl]phenyl}-5-(4-fluorophenyl)-4-oxo-1-(2,2,2-trifluoroethyl)-1,4-dihydropyridine-3-carboxamide]?
Answer: IC50 [1]: 100 to 500 nM; IC50 [2]: 10 to 20 nM

Question: How did the IC50 [1] turn out when `COc1ccc(-c2cnc(N)c(-c3ccc(NC(=O)c4cn(CC(F)(F)F)cc(-c5ccc(F)c(Br)c5)c4=O)cc3)c2)cc1OC` [Example 89, N-{4-[2-Amino-5-(3,4-dimethoxyphenyl)pyridin-3-yl]phenyl}-5-(4-fluoro-3-bromophenyl)-4-oxo-1-(2,2,2-trifluoroethyl)-1,4-dihydropyridine-3-carboxamide] was run?
Answer: 50 to 100 nM

Question: What about the IC50 [2] of the same compound?
Answer: 1 to 10 nM
